Patent US20080207716A1, “Formulations and Dosing Regiment for Ppar-Alpha Modulators” (Eli Lilly and Company Patent Division, priority 2005, published 2008)

Columns and labels:
Format in all cases: in vivo, human
[1] = system: healthy obese men and women; experiment: Meal tolerance test in the single-dose (SDSS) portion of the clinical study; settings: for Triglyceride AUEC(24-37) geometric mean (95% CI): 24-37 h post dose, placebo 44.6
Text: (§1) A single-blinded, single- (SDSS) and multiple-dose (MDSS), placebo-controlled, dose-escalation study is designed to evaluate the safety, pharmacokinetics, and pharmacodynamics of orally administered study drug in healthy obese men and women. Three different groups of subjects complete a one-step escalation of the study drug dose within Periods 1 and 2 (SDSS). […] The decision to escalate to higher doses is based on the safety assessment of preceding doses. The minimum time between dose escalations within Periods 1 and 2 is one week.
(§2) Safety is assessed throughout the study by physical examination, adverse event monitoring, electrocardiograms, clinical laboratory tests, and vital sign measurements. Pharmacodynamic evaluation includes a postprandial lipid response during the single-dose safety portion. During the multiple-dose safety study, the pharmacodynamic evaluation includes an oral glucose tolerance test, a fasting lipid panel and a postprandial lipid test. The static lipid panel included triglycerides, total cholesterol, low-density lipoprotein cholesterol [LDL-C], high-density lipoprotein cholesterol [HDL-C], Apoliproteins A1, A2, B, and C3 for cholesterol metabolism. C-reactive protein (CRP) and adiponectin are measured as biomarkers for inflammation and peroxisome proliferated agonist receptor (PPAR) gamma activity, respectively. The dynamic lipid tests include post-prandial measurements of glucose and triglycerides.
A meal tolerance test (MTT) was performed from 24 to 37 hours after each single dose during the SDSS portion of a clinical trial conducted substantially as described herein by Example 1 using LY518674 as the study drug. The data are analyzed by calculating an area under the concentration-time curve for triglycerides, nonesterified fatty acids and glucose over the postprandial periods from breakfast to lunch (area under the effect curve [AUEC{24-28}]), after lunch (AUEC[28-37]), and the entire test period (AUEC[24-37]).

[2] = system: healthy obese men and women; experiment: Safety and tolerability assessment, SDSS clinical study; settings: single oral doses 30 and 60 mg
Protocol: (§3) A single-blinded, single- (SDSS) and multiple-dose (MDSS), placebo-controlled, dose-escalation study is designed to evaluate the safety, pharmacokinetics, and pharmacodynamics of orally administered study drug in healthy obese men and women. Three different groups of subjects complete a one-step escalation of the study drug dose within Periods 1 and 2 (SDSS). The design includes a total of 6 active doses (0.1, 1, 10, 30, 60, and 100 mg) to be tested. The decision to escalate to higher doses is based on the safety assessment of preceding doses. The minimum time between dose escalations within Periods 1 and 2 is one week.
as §2, with “The static lipid panel included triglycerides, total cholesterol, low-density lipoprotein cholesterol [LDL-C], high-density lipoprotein cholesterol [HDL-C], Apoliproteins A1, A2, B, and C3 for cholesterol metabolism.” left out, “The dynamic lipid tests include post-prandial measurements of glucose and triglycerides.” left out

[3] = Pharmacokinetics after oral single- and multiple-dose administration
Protocol: as §3
(§4) Each of the 3 groups of subjects consist of approximately 9 subjects in a 2:1 ratio of active treatment to placebo, where the order of placebo administration is randomized across both the SDSS and MDSS portions of the study. All 3 groups of subjects shall be scheduled to participate in both SDSS and MDSS portions. However, the SDSS portion is completed and analyzed several months prior to beginning the MDSS (Period 3/4). The 45-day MDSS portion of the original study is designed to test 4 active doses (0.025, 0.1, 1 and 10 mg) administered daily for the first 14 days of the study. The MDSS portion recruits subjects to form 4 groups of subjects. Approximately 36 subjects (9 per dose group) are enrolled into the MDSS portion of the study.
The median time at maximal concentration (tmax) was approximately 0.5 to 1 hour. The exposure appeared dose-proportional within the studied range.

[4] = system: healthy obese men and women; experiment: Lipid pharmacodynamics (LDL-C, ApoB, ApoC), SDSS clinical study
Text: as §1
as §2, with “The dynamic lipid tests include post-prandial measurements of glucose and triglycerides.” left out

[5] = system: healthy obese subjects; experiment: Fasting lipid panel, MDSS clinical study (14 days daily dosing, 30 day follow up)
Text: FIG. 1. FIG. 1 illustrates the time profile of percentage change from baseline for LDL-C following the administration of daily oral doses of LY518674 over 14 days and 30 day follow up afterwards, in healthy obese subjects in MDSS of a study conducted substantially as described by Example 1.
as §4, §2

Q: Which “Lowest dose providing a pharmaceutically desirable effect” value ([1]; single dose study) does the source give for Cc1ccc(Cn2nc(CCCc3ccc(OC(C)(C)C(=O)O)cc3)[nH]c2=O)cc1 [LY518674, Propanoic Acid, 2-[4-[3-[2,5-dihydro-1-[(4-methylphenyl)methyl]-5-oxo-1H-1,2,4-triazol-3-yl]propyl]phenoxy]-2-methyl-] here?
A: 100 µg

Q: What about the “Effect on triglyceride (TG) AUEC” value ([1]; single dose, meal tolerance test 24 to 37 hours post dose) of the same compound?
A: rapid and profound reduction

Q: And the “Dose at which maximum TG AUEC reduction is approached” value ([1]; single oral dose)?
A: approximately 1 mg

Q: And the “Triglyceride AUEC(24-37) geometric mean (95% CI)” value ([1]; single oral dose 0.01 mg)?
A: 37.8 (31.2, 45.8) mmol · hr/L

Q: And the “Triglyceride AUEC(24-37) ratio of geometric means, dose vs. placebo (95% CI)” value (“Triglyceride AUEC(24-37) ratio … (95% CI)” below) ([1]; single oral dose 0.01 mg, p 0.083)?
A: 0.85 (0.70, 1.02) [0.083]

Q: What about the “Triglyceride AUEC(24-37) geometric mean (95% CI)” value ([1]; single oral dose 0.1 mg) of the same compound?
A: 27.6 (23.0, 33.2) mmol · hr/L

Q: What about the “Triglyceride AUEC(24-37) ratio … (95% CI)” value ([1]; single oral dose 0.1 mg, p <.001) of the same compound?
A: 0.62 (0.52, 0.74) [<.001*]

Q: And the “Triglyceride AUEC(24-37) geometric mean (95% CI)” value ([1]; single oral dose 1 mg)?
A: 23.9 (20.0, 28.6) mmol · hr/L

Q: And the “Triglyceride AUEC(24-37) ratio … (95% CI)” value ([1]; single oral dose 1 mg, p <.001)?
A: 0.54 (0.45, 0.64) [<.001*]

Q: What about the “Triglyceride AUEC(24-37) geometric mean (95% CI)” value ([1]; single oral dose 10 mg) of the same compound?
A: 24.3 (20.1, 29.5) mmol · hr/L

Q: What about the “Triglyceride AUEC(24-37) ratio … (95% CI)” value ([1]; single oral dose 10 mg, p <.001) of the same compound?
A: 0.55 (0.45, 0.67) [<.001*]

Q: And the “Triglyceride AUEC(24-37) geometric mean (95% CI)” value ([1]; single oral dose 30 mg)?
A: 20.0 (16.3, 24.5) mmol · hr/L

Q: And the “Triglyceride AUEC(24-37) ratio … (95% CI)” value ([1]; single oral dose 30 mg, p <.001)?
A: 0.45 (0.37, 0.54) [<.001*]

Q: And the “Triglyceride AUEC(24-37) geometric mean (95% CI)” value ([1]; single oral dose 60 mg)?
A: 25.2 (20.6, 30.7) mmol · hr/L

Q: And the “Triglyceride AUEC(24-37) ratio … (95% CI)” value ([1]; single oral dose 60 mg, p <.001)?
A: 0.56 (0.46, 0.69) [<.001*]

Q: And the “Tolerability finding prohibiting administration of higher doses” value [2]?
A: Gastrointestinal intolerance

Q: And the half-life ([3]; both sexes, human, in vivo, oral, as stated in MDSS results)?
A: ~10 h

Q: What about the half-life ([3]; both sexes, human, in vivo, oral, as stated in SDSS/PK results) of the same compound?
A: < 10 h

Q: And the Tmax ([3]; both sexes, human, in vivo, oral, healthy obese subjects, read-out: Median time at maximal concentration (tmax))?
A: 0.5 to 1 h

Q: What about the “Time to steady-state exposure” value ([3]; daily oral dosing) of the same compound?
A: ≤ 2 days

Q: What about the Mean accumulation ratio ([3]; daily oral dosing, steady state) of the same compound?
A: no more than 1.35

Q: And the “Absorption after oral administration” value ([3]; healthy obese subjects)?
A: rapidly absorbed

Q: What about the “Pharmacokinetics following single- versus multiple-dose administration” value ([3]; in vivo) of the same compound?
A: No differences

Q: What about the Exposure versus dose ([3]; within the studied dose range) of the same compound?
A: dose-proportional

Q: And the “ApoB and ApoC change” value ([4]; SDSS, oral)?
A: decreased in a fashion similar to that seen for LDL-C changes

Q: And the LDL-C change ([4]; single oral dose 0.01 mg)?
A: LDL-C reduction consistent with the reduction observed at the higher doses

Q: What about the “Lowest dose providing a pharmaceutically desirable effect” value ([5]; MDSS study) of the same compound?
A: 25 µg

Q: And the “Maintenance of pharmacological effect after dosing stopped” value ([5]; after 14 days daily dosing)?
A: ~14 days

Q: What about the “Time for all parameters to return to baseline after cessation of dosing” value ([5]; after 14 days daily dosing) of the same compound?
A: ≤ 2 weeks

Q: And the LDL-C change ([5]; daily oral doses 0.025, 0.1, 1 and 10 mg for 14 days, all doses similar magnitude)?
A: dramatically reduced
